Source: patent US20110212997A1, “PIPERIDINE-4-ACETAMIDE DERIVATIVES AND THEIR USE AS MONOAMINE NEUROTRANSMITTER RE-UPTAKE INHIBITORS” (NEUROSEARCH A/S, priority 2008, published 2011)
Counter-ions that a name gives are not always drawn. Like-named read-outs stand apart in the source and are kept apart here.

How the values were obtained:
[1] = target: T1, noradrenaline (NA) reuptake in synaptosomes (Rattus norvegicus, UniProt Q63380); assay: Inhibition of NA reuptake in synaptosomes; type: biochemical
T1 construct: in synaptosomes as described in WO 97/16451; from tissue
T1 sequence (Q63380 1-617): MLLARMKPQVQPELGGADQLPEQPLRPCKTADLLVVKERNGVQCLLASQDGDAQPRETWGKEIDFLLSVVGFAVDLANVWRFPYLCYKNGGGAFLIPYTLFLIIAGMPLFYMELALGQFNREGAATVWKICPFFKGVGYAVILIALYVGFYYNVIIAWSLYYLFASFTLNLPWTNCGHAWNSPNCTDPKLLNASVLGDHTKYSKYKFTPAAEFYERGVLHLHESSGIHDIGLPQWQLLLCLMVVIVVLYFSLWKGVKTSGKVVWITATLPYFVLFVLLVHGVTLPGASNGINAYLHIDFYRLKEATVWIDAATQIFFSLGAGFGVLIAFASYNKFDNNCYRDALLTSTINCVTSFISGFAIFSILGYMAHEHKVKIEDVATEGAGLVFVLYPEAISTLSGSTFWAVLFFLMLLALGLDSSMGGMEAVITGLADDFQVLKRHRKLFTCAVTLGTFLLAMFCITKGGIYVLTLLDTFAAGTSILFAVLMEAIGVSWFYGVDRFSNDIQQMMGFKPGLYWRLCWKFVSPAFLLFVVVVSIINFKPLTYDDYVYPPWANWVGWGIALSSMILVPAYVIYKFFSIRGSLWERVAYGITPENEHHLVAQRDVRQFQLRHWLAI
Procedure: (§1) Compounds were tested for their ability to inhibit the reuptake of the monoamine neurotransmitters dopamine (DA) noradrenaline (NA) and serotonine (5-HT) in synaptosomes as described in WO 97/16451 (NeuroSearch NS).
(§2) The test values are given as IC50 (the concentration (μM) of the test substance which inhibits the specific binding of ^3H-DA, ^3H-NA, or ^3H-5-HT by 50%).

[2] = target: T2, serotonine (5-HT) reuptake in synaptosomes (Rattus norvegicus, UniProt P31652); assay: Inhibition of 5-HT reuptake in synaptosomes; type: biochemical; conditions: 3H-5-HT, read-out: 5-HT-uptake IC50
T2 construct: serotonine (5-HT) in synaptosomes as described in WO 97/16451; from tissue
T2 sequence (P31652 whole entry): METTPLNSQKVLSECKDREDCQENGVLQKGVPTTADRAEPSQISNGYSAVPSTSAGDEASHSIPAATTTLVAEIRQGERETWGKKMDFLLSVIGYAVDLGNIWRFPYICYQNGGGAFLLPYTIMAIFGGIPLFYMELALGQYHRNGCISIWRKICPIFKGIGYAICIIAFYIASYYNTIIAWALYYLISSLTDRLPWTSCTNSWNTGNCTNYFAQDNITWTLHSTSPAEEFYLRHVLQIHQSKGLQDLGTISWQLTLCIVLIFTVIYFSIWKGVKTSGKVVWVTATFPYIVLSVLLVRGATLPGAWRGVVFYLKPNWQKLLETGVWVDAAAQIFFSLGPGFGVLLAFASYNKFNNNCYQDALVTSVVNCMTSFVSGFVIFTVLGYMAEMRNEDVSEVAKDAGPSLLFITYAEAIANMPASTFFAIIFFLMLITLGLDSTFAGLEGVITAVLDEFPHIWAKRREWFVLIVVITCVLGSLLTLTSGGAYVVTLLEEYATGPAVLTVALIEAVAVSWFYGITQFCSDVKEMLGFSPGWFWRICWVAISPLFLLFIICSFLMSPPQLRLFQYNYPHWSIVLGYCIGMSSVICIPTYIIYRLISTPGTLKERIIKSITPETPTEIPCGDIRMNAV
Procedure: as §1, §2

[3] = target: T3, dopamine (DA) reuptake in synaptosomes (Rattus norvegicus, UniProt P23977); assay: Inhibition of DA reuptake in synaptosomes; type: biochemical
T3 construct: in synaptosomes as described in WO 97/16451; from tissue
T3 sequence (P23977 whole entry): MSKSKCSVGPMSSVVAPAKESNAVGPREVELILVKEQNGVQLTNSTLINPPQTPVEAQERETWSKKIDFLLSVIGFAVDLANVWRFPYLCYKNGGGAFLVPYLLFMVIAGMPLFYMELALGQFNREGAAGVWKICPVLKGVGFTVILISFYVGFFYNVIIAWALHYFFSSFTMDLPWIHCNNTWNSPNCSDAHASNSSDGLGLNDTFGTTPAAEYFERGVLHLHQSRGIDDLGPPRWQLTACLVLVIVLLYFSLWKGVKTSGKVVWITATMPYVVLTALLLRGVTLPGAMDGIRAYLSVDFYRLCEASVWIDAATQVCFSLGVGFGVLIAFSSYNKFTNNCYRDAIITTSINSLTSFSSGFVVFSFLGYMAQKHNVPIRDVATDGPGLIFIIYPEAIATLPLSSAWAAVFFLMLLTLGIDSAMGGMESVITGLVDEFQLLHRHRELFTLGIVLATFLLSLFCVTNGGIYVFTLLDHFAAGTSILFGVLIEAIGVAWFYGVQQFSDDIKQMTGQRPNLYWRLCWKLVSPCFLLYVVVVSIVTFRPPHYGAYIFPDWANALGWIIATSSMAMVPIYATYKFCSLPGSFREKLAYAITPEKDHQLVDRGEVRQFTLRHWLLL
Procedure: as §1, §2

[4] = synaptosomes, 3H-NA, read-out: NA-uptake IC50
[5] = synaptosomes, 3H-DA, read-out: DA-uptake IC50

melting point | IC50 [1, 4] | IC50 [2] | IC50 [3, 5] | Structure (SMILES) | IC50 [1] | IC50 [3]
190 to 192 °C |  |  |  | CCN(C(=O)CC1CCNCC1)c1cc(Cl)ccc1Cl (as salt: fumaric acid salt) [Compound C7, N-(2,5-Dichloro-phenyl)-N-ethyl-2-piperidin-4-yl-acetamide] |  | 
151 to 153 °C |  |  |  | CCN(C(=O)CC1CCNCC1)c1cc(Cl)cc(Cl)c1 (as salt: fumaric acid salt) [Compound C9, N-(3,5-Dichloro-phenyl)-N-ethyl-2-piperidin-4-yl-acetamide] |  | 
 | 910 nM | > 1000 nM | > 1000 nM | CCN(C(=O)CC1CCNCC1)c1cccc(Cl)c1Cl [Compound C6, N-(2,3-Dichloro-phenyl)-N-ethyl-2-piperidin-4-yl-acetamide] |  | 
 | 1.2 nM | 610 nM | 2.2 nM | CCN(C(=O)CC1CCNCC1)c1ccc(Br)c(Br)c1 [Compound C11, N-(3,4-Dibromo-phenyl)-N-ethyl-2-piperidin-4-yl-acetamide] |  | 
 | 1700 nM | > 1000 nM | > 1000 nM | CCN(C(=O)CC1CCN(C)CC1)c1cccc2ccccc12 [Compound D3, N-Ethyl-2-(1-methyl-piperidin-4-yl)-N-naphthalen-1-yl-acetamide] |  | 
 | 2.6 nM | 2100 nM | 8.6 nM | CCN(C(=O)CC1CCNCC1)c1ccc(Br)c(Cl)c1 [Compound D4, N-(4-Bromo-3-chloro-phenyl)-N-ethyl-2-piperidin-4-yl-acetamide] |  | 
 | > 1000 nM | > 1000 nM | > 1000 nM | CCN(C(=O)CC1CCNCC1)c1ccc(Cl)cc1Cl [Compound D5, N-(2,4-Dichloro-phenyl)-N-ethyl-2-piperidin-4-yl-acetamide] |  | 
 | 7.7 nM | 1200 nM | 31 nM | CCN(C(=O)CC1CCN(C(C)C)CC1)c1ccc(Cl)c(Cl)c1 [Compound D10, N-(3,4-Dichloro-phenyl)-N-ethyl-2-(1-isopropyl-piperidin-4-yl)-acetamide] |  | 
 | 2.7 nM | 1500 nM | 16 nM | CCN(C(=O)CC1CCN(C)CC1)c1ccc(Br)c(Cl)c1 [Compound D13, N-(4-Bromo-3-chloro-phenyl)-N-ethyl-2-(1-methyl-piperidin-4-yl)-acetamide] |  | 
 | 81 nM | 2100 nM |  | CCN(C(=O)CC1CCN(C)CC1)c1ccc(Cl)c(Cl)c1Cl [Compound D18, N-Ethyl-2-(1-methyl-piperidin-4-yl)-N-(2,3,4-trichloro-phenyl)-acetamide] |  | 
 | 2.3 nM | 1200 nM | 12 nM | CCN(C(=O)CC1CCN(C)CC1)c1ccc(Cl)c(Br)c1 [Compound D21, N-(3-Bromo-4-chloro-phenyl)-N-ethyl-2-(1-methyl-piperidin-4-yl)-acetamide] |  | 

The next lines start with the compound.

Structure (SMILES) | melting point | IC50 [1, 4] | IC50 [2] | IC50 [3, 5] | IC50 [1] | IC50 [3]
CCN(C(=O)CC1CCNCC1)c1c(Cl)cccc1Cl (as salt: fumaric acid salt) [Compound C8, N-(2,6-Dichloro-phenyl)-N-ethyl-2-piperidin-4-yl-acetamide] | 167 to 169 °C |  |  |  |  | 
CN(C(=O)CC1CCNCC1)c1ccc(Cl)c(Cl)c1 [Compound B1, N-(3,4-Dichloro-phenyl)-N-methyl-2-piperidin-4-yl-acetamide] |  | 120 nM | 280 nM | 230 nM |  | 
CCN(C(=O)CC1CCNCC1)c1ccc(Cl)c(Cl)c1 [Compound C1, N-(3,4-Dichloro-phenyl)-N-ethyl-2-piperidin-4-yl-acetamide] |  | 6.6 nM | 1500 nM | 15 nM |  | 
O=C(CC1CCNCC1)Nc1ccc(Cl)c(Cl)c1 [Compound C2, N-(3,4-Dichloro-phenyl)-2-piperidin-4-yl-acetamide] |  | > 1000 nM | 23 nM | > 1000 nM |  | 
CCN(C(=O)CC1CCNCC1)c1ccc(Cl)cc1 [Compound C3, N-(4-Chloro-phenyl)-N-ethyl-2-piperidin-4-yl-acetamide] |  | 770 nM | > 1000 nM | 450 nM |  | 
CCN(C(=O)CC1CCNCC1)c1cccc(Cl)c1 [Compound C4, N-(3-Chloro-phenyl)-N-ethyl-2-piperidin-4-yl-acetamide] |  | 460 nM | > 1000 nM | 600 nM |  | 
CCN(C(=O)CC1CCNCC1)c1cccc2ccccc12 [Compound C5, N-Ethyl-N-naphthalen-1-yl-2-piperidin-4-yl-acetamide] |  | 600 nM | > 1000 nM | > 1000 nM |  | 
CCN(C(=O)CC1CCNCC1)c1cc(Cl)ccc1Cl [Compound C7, N-(2,5-Dichloro-phenyl)-N-ethyl-2-piperidin-4-yl-acetamide] |  | 1500 nM | > 1000 nM | 2600 nM |  | 
CCN(C(=O)CC1CCNCC1)c1c(Cl)cccc1Cl [Compound C8, N-(2,6-Dichloro-phenyl)-N-ethyl-2-piperidin-4-yl-acetamide] |  | 2700 nM | > 1000 nM | > 1000 nM |  | 
CCN(C(=O)CC1CCNCC1)c1cc(Cl)cc(Cl)c1 [Compound C9, N-(3,5-Dichloro-phenyl)-N-ethyl-2-piperidin-4-yl-acetamide] |  | 670 nM | > 1000 nM | 1900 nM |  | 
CCN(C(=O)CC1CCNCC1)c1ccc(Cl)c(Cl)c1Cl [Compound C10, N-Ethyl-2-piperidin-4-yl-N-(2,3,4-trichloro-phenyl)-acetamide] |  | 120 nM | 1400 nM | 630 nM |  | 
CCCN(C(=O)CC1CCNCC1)c1ccc(Cl)c(Cl)c1 [Compound C12, N-(3,4-Dichloro-phenyl)-2-piperidin-4-yl-N-propyl-acetamide] |  | 5.2 nM | 880 nM | 12 nM |  | 
CCN(C(=O)CC1CCNCC1)c1ccc(Cl)c(Br)c1 [Compound C13, N-(3-Bromo-4-chloro-phenyl)-N-ethyl-2-piperidin-4-yl-acetamide] |  | 1.3 nM | 1200 nM | 8 nM |  | 
CCN(C(=O)CC1CCN(C)CC1)c1ccc(Cl)c(Cl)c1 [Compound D1, N-(3,4-Dichloro-phenyl)-N-ethyl-2-(1-methyl-piperidin-4-yl)-acetamide] |  | 4.4 nM | 1400 nM | 20 nM |  | 
CCN(C(=O)CC1CCN(C)CC1)c1ccc(Cl)cc1 [Compound D2, N-(4-Chloro-phenyl)-N-ethyl-2-(1-methyl-piperidin-4-yl)-acetamide] |  | 390 nM | > 1000 nM | 970 nM |  | 
CN1CCC(CC(=O)Nc2ccc(Cl)c(Cl)c2)CC1 [Compound D6, N-(3,4-Dichloro-phenyl)-2-(1-methyl-piperidin-4-yl)-acetamide] |  | > 1000 nM | > 1000 nM | > 1000 nM |  | 
CCN(C(=O)CC1CCN(C)CC1)c1cccc(Cl)c1 [Compound D7, N-(3-Chloro-phenyl)-N-ethyl-2-(1-methyl-piperidin-4-yl)-acetamide] |  | 350 nM | > 1000 nM | 970 nM |  | 
CCN(C(=O)CC1CCN(C)CC1)c1cccc(Cl)c1Cl [Compound D8, N-(2,3-Dichloro-phenyl)-N-ethyl-2-(1-methyl-piperidin-4-yl)-acetamide] |  | > 1000 nM | > 1000 nM | > 1000 nM |  | 
CCCN1CCC(CC(=O)N(CC)c2ccc(Cl)c(Cl)c2)CC1 [Compound D9, N-(3,4-Dichloro-phenyl)-N-ethyl-2-(1-propykpiperidin-4-yl)-acetamide] |  |  | 780 nM |  | 3.8 nM | 12 nM
CCN1CCC(CC(=O)N(CC)c2ccc(Cl)c(Cl)c2)CC1 [Compound D11, N-(3,4-Dichloro-phenyl)-N-ethyl-2-(1-ethyl-piperidin-4-yl)-acetamide] |  | 3.2 nM | 870 nM | 13 nM |  | 
CN1CCC(CC(=O)N(C)c2ccc(Cl)c(Cl)c2)CC1 [Compound D12, N-(3,4-Dichloro-phenyl)-N-methyl-2-(1-methyl-piperidin-4-yl)-acetamide] |  | 69 nM | > 1000 nM | 160 nM |  | 
CCN(C(=O)CC1CCN(C)CC1)c1ccc(Cl)cc1Cl [Compound D14, N-(2,4-Dichloro-phenyl)-N-ethyl-2-(1-methyl-piperidin-4-yl)-acetamide] |  | 960 nM | > 1000 nM | 2500 nM |  | 
CCN(C(=O)CC1CCN(C)CC1)c1cc(Cl)ccc1Cl [Compound D15, N-(2,5-Dichloro-phenyl)-N-ethyl-2-(1-methyl-piperidin-4-yl)-acetamide] |  | 860 nM | > 1000 nM | 1700 nM |  | 
CCN(C(=O)CC1CCN(C)CC1)c1c(Cl)cccc1Cl [Compound D16, N-(2,6-Dichloro-phenyl)-N-ethyl-2-(1-methyl-piperidin-4-yl)-acetamide] |  | > 1000 nM | > 1000 nM | > 1000 nM |  | 
CCN(C(=O)CC1CCN(C)CC1)c1cc(Cl)cc(Cl)c1 [Compound D17, N-(3,5-Dichloro-phenyl)-N-ethyl-2-(1-methyl-piperidin-4-yl)-acetamide] |  | 1800 nM | > 1000 nM | > 1000 nM |  | 
CCN(C(=O)CC1CCN(C)CC1)c1ccc(Br)c(Br)c1 [Compound D19, N-(3,4-Dibromo-phenyl)-N-ethyl-2-(1-methyl-piperidin-4-yl)-acetamide] |  | 1.1 nM | 680 nM | 3.6 nM |  | 
CCCN(C(=O)CC1CCN(C)CC1)c1ccc(Cl)c(Cl)c1 [Compound D20, N-(3,4-Dichloro-phenyl)-2-(1-methyl-piperidin-4-yl)-N-propyl-acetamide] |  | 3.4 nM | 700 nM | 12 nM |  | 
